Reference: patent US20250026718A1, “SOLID FORMS OF MESEMBRINE AND THERAPEUTIC USES THEREOF” (Sensorium Therapeutics, Inc., priority 2022, published 2025)
Converted amounts (≈) assume the structure as drawn. “Also recorded” adds a separate entry of the source. Like-named read-outs stand apart in the source and are kept apart here.

How the values were obtained:
[1] = solid state stability: storage at 25° C./60% RH and 40° C./75% RH for 1 week, XRPD and HPLC purity; assay type: physicochemical; conditions: for Purity (area %): HPLC purity; for Form change: XRPD; for HPLC purity change after storage: 40° C./75% RH for 1 week
Procedure: For XRPD analysis, Empyrean X-ray powder diffractometer from Malvern Panalytical was used. Sample was spread on the middle of a zero-background Si holder.
XRPD and HPLC purity was performed for stability samples to assess the physical and chemical stability.

[2] = hygroscopicity by DVS; assay type: physicochemical
Procedure: Hygroscopicity of Freeform Form A, HCl Form A, Besylate Form B, and Gentisate Form A was evaluated by DVS.

[3] = biological target: sodium-dependent serotonin transporter (SERT) (Homo sapiens, UniProt P31645); conditions: reported for the naturally occurring compound from Sceletium tortuosum; cited from earlier work
Chain of sodium-dependent serotonin transporter (SERT) (P31645 whole entry, species assumed): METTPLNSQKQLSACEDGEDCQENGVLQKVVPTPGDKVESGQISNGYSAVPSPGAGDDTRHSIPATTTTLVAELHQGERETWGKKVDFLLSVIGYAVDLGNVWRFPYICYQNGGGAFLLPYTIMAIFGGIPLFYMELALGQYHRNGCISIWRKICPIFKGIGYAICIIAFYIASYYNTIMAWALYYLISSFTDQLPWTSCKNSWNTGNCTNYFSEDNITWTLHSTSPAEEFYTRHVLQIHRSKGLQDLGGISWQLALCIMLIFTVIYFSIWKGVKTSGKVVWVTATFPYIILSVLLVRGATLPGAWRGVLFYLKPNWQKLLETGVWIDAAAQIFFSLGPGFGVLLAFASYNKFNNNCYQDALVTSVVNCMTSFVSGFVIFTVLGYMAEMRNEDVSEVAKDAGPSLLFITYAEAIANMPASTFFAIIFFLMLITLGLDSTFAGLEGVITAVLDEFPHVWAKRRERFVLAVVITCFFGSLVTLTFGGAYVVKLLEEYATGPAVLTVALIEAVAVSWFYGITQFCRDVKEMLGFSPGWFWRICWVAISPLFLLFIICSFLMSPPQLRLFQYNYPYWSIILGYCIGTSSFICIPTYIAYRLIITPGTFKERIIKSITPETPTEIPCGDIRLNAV

[4] = solubility of Freeform Form A in solvents; assay type: physicochemical
Source text: Freeform Form A was a gum material. The material had the solubility shown below:

[5] = kinetic solubility in H2O and bio-relevant media (SGF, FaSSIF, FeSSIF) at 37° C.; assay type: physicochemical; conditions: thermodynamic from solid; for solubility: 37 °C, read-out: observed solubility; for solubility kinetic / solubility at 1 h / solubility at 2 h / solubility at 4 h / solubility at 24 h: 37° C.; for solubility kinetic: at 1, 2, 4 and 24 hrs; for solubility at 1 h / solubility at 2 h / solubility at 4 h / solubility at 24 h: read-out: S: Solubility (mg/mL), calculated by freebase
Procedure: • 1. Add about 40 mg of samples and 4 mL of corresponding medium into a 5-mL glass vial. The loading concentration was ˜10 mg/mL (calculated by freebase). • 2. Roll at 37° C. (˜25 rpm). Sample at 1, 2, 4 and 24 hrs. • 3. At each time-point, sample 0.8 mL of solution or suspension into a centrifuge tube prior to centrifugation (12000 rpm, 37° C., 5 min) and filtration through 0.45 μm PTFE membrane. • 4. Test pH and concentration for the filtrate. Analyze residual solids by XRPD.

## COc1ccc([C@@]23CCC(=O)C[C@@H]2N(C)CC3)cc1OC.O=C(O)c1cc(O)ccc1O [Gentisate Form A]
[1]; 25° C./60% RH/open/1 week
  form change by XRPD after storage: no form change
  Purity (area %): 97.18 area %
  Form change: No
[1]
  HPLC purity change after storage: slight purity decrease
[1]; 40° C./75% RH/open/1 week
  form change by XRPD after storage: no form change
  Purity (area %): 97.11 area %
  Form change: No
[1]; Initial
  Purity (area %): 97.22 area %
[2]; DVS
  Water uptake at 25° C./80% RH (wt %): 0.17 wt %
  water uptake at 25° C./80% RH: 0.17%
[2]
  Form change by XRPD after DVS test: No form change and No

## COc1ccc([C@@]23CCC(=O)C[C@@H]2N(C)CC3)cc1OC [Compound 1, 3a-(3,4-dimethoxyphenyl)-octahydro-1-methyl-6H-indol-6-one]
[3]
  serotonin (5-HT) uptake inhibitory activity: serotonin (5-HT) uptake inhibitory activity

## COc1ccc(C23CCC(=O)CC2N(C)CC3)cc1OC.Cl (stereo not shown) [HCl Form A]
[1]; 25° C./60% RH/open/1 week
  form change by XRPD after storage: no form change
  Purity (area %): 97.06 area %
  Form change: No
[1]
  HPLC purity change after storage: slight purity decrease
[1]; 40° C./75% RH/open/1 week
  form change by XRPD after storage: no form change
  Purity (area %): 97.00 area %
  Form change: No
[1]; Initial
  Purity (area %): 97.15 area %
[2]; DVS
  Water uptake at 25° C./80% RH (wt %): 0.72 wt %
  water uptake at 25° C./80% RH: 0.72%
[2]; DVS, 95% RH
  water uptake at 95% RH: 18.46%
[2]
  Form change by XRPD after DVS test: No form change
[2]; listed as HCl salt Form A
  Form change by XRPD after DVS test: No form change and No

## COc1ccc([C@@]23CCC(=O)C[C@@H]2N(C)CC3)cc1OC [Freeform Form A]
[4]; 1,4-Dioxane, organic solvent or mixture
  solubility: > 40000 µg/mL
[4]; 2-MeTHF, organic solvent or mixture
  solubility: > 40000 µg/mL
[4]; ACN, organic solvent or mixture
  solubility: > 44000 µg/mL
[4]; Acetone, organic solvent or mixture
  solubility: > 40000 µg/mL
[4]; CPME, organic solvent or mixture
  solubility: > 40000 µg/mL
[4]; DCM, organic solvent or mixture
  solubility: > 42000 µg/mL
[4]; EtOAc, organic solvent or mixture
  solubility: 19000 to 38000 µg/mL (≈ 65.7 to 131 mM)
[4]; EtOH, organic solvent or mixture
  solubility: > 42000 µg/mL
[4]; H2O, water
  solubility: > 42000 µg/mL
[4]; IPA, organic solvent or mixture
  solubility: > 38000 µg/mL
[4]; IPAc, organic solvent or mixture
  solubility: > 36000 µg/mL
[4]; MIBK, organic solvent or mixture
  solubility: > 38000 µg/mL
[4]; MTBE, organic solvent or mixture
  solubility: > 40000 µg/mL
[4]; MeOH, organic solvent or mixture
  solubility: > 36000 µg/mL
[4]; THF, organic solvent or mixture
  solubility: > 44000 µg/mL
[1]; 25° C./60% RH/open/1 week
  form change by XRPD after storage: amorphous
  Purity (area %): 98.14 area %
  Form change: Amorphous
[1]
  HPLC purity change after storage: slight purity decrease
[1]; 40° C./75% RH/open/1 week
  form change by XRPD after storage: amorphous
  Purity (area %): 98.01 area %
  Form change: Amorphous
[1]; Initial
  Purity (area %): 98.15 area %
[2]
  Form change by XRPD after DVS test: amorphous; also recorded: Amorphous*
[2]; during DVS test
  behaviour during DVS test: deliquesced
[5]; simulated gastric fluid, in SGF
  solubility: > 8300 µg/mL
[5]; in FaSSIF
  solubility: > 8300 µg/mL
[5]; in FeSSIF
  solubility: > 8300 µg/mL
[5]; water, in H2O
  solubility: > 8300 µg/mL
[5]; simulated gastric fluid, SGF
  solubility kinetic: > 8300 µg/mL
  solubility at 1 h: > 8.6 mg/mL
  solubility at 2 h: > 9.2 mg/mL
  solubility at 4 h: > 8.4 mg/mL
  solubility at 24 h: > 8.7 mg/mL
[5]; FaSSIF
  solubility kinetic: > 8300 µg/mL
  solubility at 1 h: > 8.7 mg/mL
  solubility at 2 h: > 8.7 mg/mL
  solubility at 4 h: > 8.3 mg/mL
  solubility at 24 h: > 8.5 mg/mL
[5]; FeSSIF
  solubility kinetic: > 8300 µg/mL
  solubility at 1 h: > 8.7 mg/mL
  solubility at 2 h: > 9.8 mg/mL
  solubility at 4 h: > 9.1 mg/mL
  solubility at 24 h: > 9.9 mg/mL
[5]; water, H2O
  solubility kinetic: > 8300 µg/mL
  solubility at 1 h: > 9.1 mg/mL
  solubility at 2 h: > 9.3 mg/mL
  solubility at 4 h: > 9.4 mg/mL
  solubility at 24 h: > 9.3 mg/mL

## COc1ccc([C@@]23CCC(=O)C[C@@H]2N(C)CC3)cc1OC.O=S(=O)(O)c1ccccc1 [Besylate Form B]
[1]; 25° C./60% RH/open/1 week
  form change by XRPD after storage: no form change
  Purity (area %): 97.16 area %
  Form change: No
[1]
  HPLC purity change after storage: slight purity decrease
[1]; 40° C./75% RH/open/1 week
  form change by XRPD after storage: no form change
  Purity (area %): 97.12 area %
  Form change: No
[1]; Initial
  Purity (area %): 97.21 area %
[2]; DVS
  Water uptake at 25° C./80% RH (wt %): 0.32 wt %
  water uptake at 25° C./80% RH: 0.32%
[2]
  Form change by XRPD after DVS test: No form change and No
